Data as given in publication PMC7142328 (Journal of natural products, 2018).

Experiments:
In-vivo toxicity = conditions: male, Swiss-Webster, mouse, in vivo, iv
rat α7 nAChR [1] = biological target: T1, rat α7 nAChR (Rattus norvegicus, UniProt Q05941); type: cell-based
5-HT3A receptor = biological target: T2, 5-HT3A receptor (Rattus norvegicus, UniProt P35563); assay: Two-electrode voltage clamp electrophysiology in Xenopus oocytes, 5-HT3A; type: cell-based
T2 sequence (P35563 24-483): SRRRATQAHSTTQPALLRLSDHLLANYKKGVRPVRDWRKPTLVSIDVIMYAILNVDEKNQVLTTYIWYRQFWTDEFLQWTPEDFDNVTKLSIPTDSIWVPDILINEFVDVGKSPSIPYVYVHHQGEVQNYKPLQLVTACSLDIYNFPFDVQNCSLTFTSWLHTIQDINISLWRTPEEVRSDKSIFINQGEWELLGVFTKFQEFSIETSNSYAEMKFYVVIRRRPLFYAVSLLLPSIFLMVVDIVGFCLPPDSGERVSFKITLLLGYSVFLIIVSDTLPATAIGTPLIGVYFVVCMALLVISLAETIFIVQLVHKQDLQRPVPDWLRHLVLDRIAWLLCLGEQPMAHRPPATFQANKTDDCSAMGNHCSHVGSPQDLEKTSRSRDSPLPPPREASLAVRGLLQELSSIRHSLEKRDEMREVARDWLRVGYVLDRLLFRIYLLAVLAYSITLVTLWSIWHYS

rat α3β4 nAChR [2] = biological target: T3, rat α3β4 nAChR (Rattus norvegicus, UniProt P04757+P12392); type: binding
T3 sequence (P12392 21-495): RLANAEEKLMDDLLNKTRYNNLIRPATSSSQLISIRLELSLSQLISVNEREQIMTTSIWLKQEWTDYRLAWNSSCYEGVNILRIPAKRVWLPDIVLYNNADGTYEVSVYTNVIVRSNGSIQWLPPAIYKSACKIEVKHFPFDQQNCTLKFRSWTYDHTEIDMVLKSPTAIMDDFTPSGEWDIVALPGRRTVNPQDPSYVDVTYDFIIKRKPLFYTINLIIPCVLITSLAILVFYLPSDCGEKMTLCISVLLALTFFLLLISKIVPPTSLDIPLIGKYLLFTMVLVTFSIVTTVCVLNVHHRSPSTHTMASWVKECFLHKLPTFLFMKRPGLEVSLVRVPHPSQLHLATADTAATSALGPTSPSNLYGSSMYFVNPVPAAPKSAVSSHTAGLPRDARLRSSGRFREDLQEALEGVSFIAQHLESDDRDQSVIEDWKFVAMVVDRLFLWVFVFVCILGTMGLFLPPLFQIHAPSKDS
T3 sequence (P04757 26-499): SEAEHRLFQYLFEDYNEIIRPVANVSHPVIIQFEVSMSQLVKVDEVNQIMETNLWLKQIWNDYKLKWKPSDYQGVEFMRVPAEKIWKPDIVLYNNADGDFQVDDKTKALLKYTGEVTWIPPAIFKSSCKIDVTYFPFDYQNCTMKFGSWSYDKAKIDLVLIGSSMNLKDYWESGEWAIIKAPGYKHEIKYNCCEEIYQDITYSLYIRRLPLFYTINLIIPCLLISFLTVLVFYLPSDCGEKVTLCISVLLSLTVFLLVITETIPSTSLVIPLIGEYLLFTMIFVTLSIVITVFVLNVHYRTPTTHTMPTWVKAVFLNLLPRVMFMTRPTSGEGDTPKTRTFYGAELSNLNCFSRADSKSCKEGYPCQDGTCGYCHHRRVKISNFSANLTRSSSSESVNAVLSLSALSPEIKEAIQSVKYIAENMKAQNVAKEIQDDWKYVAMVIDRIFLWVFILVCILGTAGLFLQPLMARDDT

[3] = biological target: native nAChR in rat forebrain (Rattus norvegicus, UniProt P09483+P12390); type: binding
Sequence of native nAChR in rat forebrain (P12390 25-500): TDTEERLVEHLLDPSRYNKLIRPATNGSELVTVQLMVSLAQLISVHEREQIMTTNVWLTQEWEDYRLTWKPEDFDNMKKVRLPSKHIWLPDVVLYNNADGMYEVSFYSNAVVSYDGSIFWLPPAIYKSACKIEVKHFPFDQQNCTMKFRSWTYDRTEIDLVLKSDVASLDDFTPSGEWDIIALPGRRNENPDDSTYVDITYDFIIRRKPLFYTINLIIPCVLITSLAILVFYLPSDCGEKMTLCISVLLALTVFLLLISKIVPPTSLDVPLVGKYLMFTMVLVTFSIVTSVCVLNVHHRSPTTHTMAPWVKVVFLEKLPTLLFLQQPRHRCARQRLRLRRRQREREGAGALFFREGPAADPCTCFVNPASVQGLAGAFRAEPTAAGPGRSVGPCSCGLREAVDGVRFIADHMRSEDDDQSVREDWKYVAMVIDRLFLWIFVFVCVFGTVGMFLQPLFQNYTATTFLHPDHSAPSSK
Sequence of native nAChR in rat forebrain (P09483 31-630): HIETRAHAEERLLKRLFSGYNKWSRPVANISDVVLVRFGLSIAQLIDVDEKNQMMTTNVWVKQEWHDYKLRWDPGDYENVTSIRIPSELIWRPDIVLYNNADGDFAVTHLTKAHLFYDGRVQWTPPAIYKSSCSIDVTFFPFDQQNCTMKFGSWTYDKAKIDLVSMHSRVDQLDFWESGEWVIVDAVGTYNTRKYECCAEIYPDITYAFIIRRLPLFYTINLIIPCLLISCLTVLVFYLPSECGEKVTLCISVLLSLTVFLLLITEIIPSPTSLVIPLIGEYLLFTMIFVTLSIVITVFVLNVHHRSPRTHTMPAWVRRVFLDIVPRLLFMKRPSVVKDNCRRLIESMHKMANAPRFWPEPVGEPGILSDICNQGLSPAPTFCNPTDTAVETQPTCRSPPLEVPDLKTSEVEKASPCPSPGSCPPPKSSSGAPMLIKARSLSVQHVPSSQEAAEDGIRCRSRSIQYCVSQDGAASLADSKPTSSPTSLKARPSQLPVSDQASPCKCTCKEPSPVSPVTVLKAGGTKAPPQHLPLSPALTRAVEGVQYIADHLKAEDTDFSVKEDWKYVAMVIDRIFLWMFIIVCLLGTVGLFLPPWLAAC

rat α4β2 nAChR [4] = biological target: T4, rat α4β2 nAChR (Rattus norvegicus, UniProt P09483+P12390); type: binding
T4 sequence (P09483 31-630): as above
T4 sequence (P12390 25-500): as the sequence (P12390 25-500) above

rat α4β2 nAChR [5] = biological target: T4, rat α4β2 nAChR; type: cell-based
rat α3β4 nAChR [6] = biological target: T3, rat α3β4 nAChR; assay: cell-based; type: cell-based
Human α4β2 nAChR = Human α4β2 nAChR (Homo sapiens, UniProt P17787+P43681); type: cell-based; conditions: for agonist character, α4β2: relative to nicotine
Sequence of Human α4β2 nAChR (P43681 29-627 limits assumed): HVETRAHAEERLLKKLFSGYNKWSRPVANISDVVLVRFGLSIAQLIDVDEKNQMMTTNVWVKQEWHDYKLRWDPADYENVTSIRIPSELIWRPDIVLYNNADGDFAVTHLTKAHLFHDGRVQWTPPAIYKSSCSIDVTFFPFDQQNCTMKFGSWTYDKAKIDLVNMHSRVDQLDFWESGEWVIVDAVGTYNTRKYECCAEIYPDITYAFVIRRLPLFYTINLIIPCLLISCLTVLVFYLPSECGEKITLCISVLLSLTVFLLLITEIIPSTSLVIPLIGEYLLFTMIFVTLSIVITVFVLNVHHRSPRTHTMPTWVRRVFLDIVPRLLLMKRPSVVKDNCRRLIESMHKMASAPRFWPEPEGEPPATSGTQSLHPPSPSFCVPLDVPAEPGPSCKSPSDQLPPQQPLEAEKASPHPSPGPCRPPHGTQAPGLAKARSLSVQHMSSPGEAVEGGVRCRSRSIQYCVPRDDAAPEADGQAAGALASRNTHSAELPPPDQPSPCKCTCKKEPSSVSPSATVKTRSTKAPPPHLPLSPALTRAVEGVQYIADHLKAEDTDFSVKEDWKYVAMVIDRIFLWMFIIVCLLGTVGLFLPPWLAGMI
Sequence of Human α4β2 nAChR (P17787 26-502): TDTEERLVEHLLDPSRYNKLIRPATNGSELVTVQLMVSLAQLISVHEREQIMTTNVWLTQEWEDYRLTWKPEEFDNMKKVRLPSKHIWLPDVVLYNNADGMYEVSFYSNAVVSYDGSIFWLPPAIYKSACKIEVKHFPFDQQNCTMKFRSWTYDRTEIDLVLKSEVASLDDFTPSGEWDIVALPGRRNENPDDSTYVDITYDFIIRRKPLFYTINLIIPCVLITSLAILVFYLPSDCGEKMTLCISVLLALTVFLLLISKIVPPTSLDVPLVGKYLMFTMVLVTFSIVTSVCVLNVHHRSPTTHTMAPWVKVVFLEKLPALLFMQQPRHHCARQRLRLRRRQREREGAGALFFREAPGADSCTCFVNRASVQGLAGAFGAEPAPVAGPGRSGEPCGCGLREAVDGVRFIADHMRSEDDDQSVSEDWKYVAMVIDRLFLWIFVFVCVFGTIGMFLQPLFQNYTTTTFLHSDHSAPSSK

rat α3β2 nAChR = rat α3β2 nAChR (Rattus norvegicus, UniProt P04757+P12390); assay: Two-electrode voltage clamp electrophysiology in Xenopus oocytes, α3β2; type: cell-based
Sequence of rat α3β2 nAChR (P04757 26-499): as the sequence (P04757 26-499) above
Sequence of rat α3β2 nAChR (P12390 25-500): as the sequence (P12390 25-500) above

Swiss-Webster mice [7] = conditions: cited from earlier work
Swiss-Webster mice [8] = assay: In-vivo toxicity; conditions: mice; for signs of toxicity: intravenous
nAChR = assay: Overall nAChR pharmacology, summary statements; conditions: most receptors tested
rat α7 nAChR [9] = biological target: T1, rat α7 nAChR; type: binding

T1 sequence (Q05941 23-502): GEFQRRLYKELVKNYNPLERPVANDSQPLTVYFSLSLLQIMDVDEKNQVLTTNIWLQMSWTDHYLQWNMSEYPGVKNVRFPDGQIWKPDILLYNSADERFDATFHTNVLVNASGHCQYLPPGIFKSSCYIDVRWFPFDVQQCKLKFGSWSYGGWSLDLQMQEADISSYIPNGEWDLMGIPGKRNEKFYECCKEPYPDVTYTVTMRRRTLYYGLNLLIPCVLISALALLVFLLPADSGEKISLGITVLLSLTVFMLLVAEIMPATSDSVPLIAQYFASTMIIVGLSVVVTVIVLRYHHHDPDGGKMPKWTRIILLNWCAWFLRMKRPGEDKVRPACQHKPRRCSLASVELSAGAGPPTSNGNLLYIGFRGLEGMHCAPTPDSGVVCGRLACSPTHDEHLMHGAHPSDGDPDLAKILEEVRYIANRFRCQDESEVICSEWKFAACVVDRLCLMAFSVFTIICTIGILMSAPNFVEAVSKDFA

Compound: Clc1ccc2c(n1)OC13CCC1NCC23 (racemic) [(±)-1, phantasmidine]
- LD50 (In-vivo toxicity): 0.27 ± 0.19 mg/kg
- Hillslope α7 (rat α7 nAChR [1]): 1.8
- agonist character, α7 (rat α7 nAChR [1]; vs acetylcholine, oocytes): full agonist
- Hillslope 5HT3A (5-HT3A receptor): 1.7
- agonist character, 5-HT3A (5-HT3A receptor; vs meta-chlorophenylbiguanide (mCPBG), oocytes): partial agonist
- lower binding affinity than epibatidine (2a), α3β4 (rat α3β4 nAChR [2]): 50 fold
- lower binding affinity than epibatidine (2a), native receptors in rat forebrain [3]: 25 fold
- lower binding affinity than epibatidine (2a), α4β2 (rat α4β2 nAChR [4]): 10 fold
- higher affinity for α4β2 over α3β4 receptors (rat α4β2 nAChR [4]; binding): at least 30 fold
- Hillslope α4β2 (rat α4β2 nAChR [5]): 1.6
- agonist character, α4β2 (rat α4β2 nAChR [5]; vs acetylcholine, oocytes): partial agonist
- Eudismic Ratio, 86Rb efflux α3β4 (rat α3β4 nAChR [6]): 47
- difference in functional potency vs 2a, α3β4 (rat α3β4 nAChR [6]; 86Rb efflux): 18 fold
- agonist character, α3β4 (rat α3β4 nAChR [6]; 86Rb efflux, relative to nicotine): near-full agonist
- Eudismic Ratio, 86Rb efflux α4β2 (Human α4β2 nAChR): 280
- difference in functional potency vs 2a, α4β2 (Human α4β2 nAChR; 86Rb efflux): 8 fold
- agonist character, α4β2 (Human α4β2 nAChR; 86Rb efflux): very potent partial agonist
- Hillslope α3β2 (rat α3β2 nAChR): 1.57
- agonist character, α3β2 (rat α3β2 nAChR; vs acetylcholine, oocytes): partial agonist

Compound: Clc1ccc(C2CC3CCC2N3)cn1 (racemic) [(±)-2, epibatidine, reference compound]
- LD50 (In-vivo toxicity): 0.0015 ± 0.0003 mg/kg

Compound: CN1CCC[C@H]1c1cccnc1 [2S-(−)-Nicotine, reference compound]
- LD50 in mouse (Swiss-Webster mice [7]): 0.3 mg/kg
- Emax (rat α3β4 nAChR [6]; read-out: Emax Rat α3β4): 107 ± 3%

Compound: Clc1ccc2c(n1)O[C@]13CC[C@H]1NC[C@H]23 [(2aR,4aS,9aS)-1, phantasmidine]
- LD50 (In-vivo toxicity): 0.072 ± 0.014 mg/kg
- less toxic than racemic 2a (Swiss-Webster mice [8]; LD50 comparison): 48 fold
- signs of toxicity (Swiss-Webster mice [8]; dose of 40 μg/kg): piloerection, slight elevated respiration and complete recovery in less than 1 min
- signs of toxicity (Swiss-Webster mice [8]; dose of 50 μg/kg): piloerection, elevated respiration, hyperactivity (running) progressing to tonic clonic seizures and death in less than 30 sec
- eudismic ratio of toxicity (Swiss-Webster mice [8]): around 100
- Eudismic Ratio, electrophysiology α7 (rat α7 nAChR [1]): 5
- Hillslope α7 (rat α7 nAChR [1]): 1.5
- less potent than epibatidine (nAChR): ~ 10 fold
- more potent than nicotine (nAChR): ~ 100 fold
- affinity less than 2a, α7 (rat α7 nAChR [9]): 2 fold
- higher affinity than the distomer ent-1 (rat α4β2 nAChR [4]; across the subtypes and forebrain of Table 1): 30-44 fold
- Hillslope α4β2 (rat α4β2 nAChR [5]): 1.8

Compound: Clc1ccc2c(n1)O[C@@]13CC[C@@H]1NC[C@@H]23 [(2aS,4aR,9aR)-ent-1]
- Hillslope α7 (rat α7 nAChR [1]): 1.3
- Hillslope α4β2 (rat α4β2 nAChR [5]): 1.7
- agonist character, α4β2 (Human α4β2 nAChR; 86Rb efflux): full agonist

Compound: CC(=O)OCC[N+](C)(C)C [Acetylcholine, reference compound]
- Hillslope α7 (rat α7 nAChR [1]): 1.5
- Imax α7 (rat α7 nAChR [1]; normalized to 1 mm acetylcholine): 1.0 ± 0.1
- Hillslope α4β2 (rat α4β2 nAChR [5]): 24 ± 6 (1.0 ± 0.1) 1.0
- Imax α4β2 (rat α4β2 nAChR [5]): 24 ± 6 (1.0 ± 0.1) 1.0

Compound: CO[C@H]1CC=C2CCN3CCC4=C(CC(=O)OC4)[C@]23C1 [DHβE, dihydro-β-erythroidine, reference compound]
- block of currents induced by 10 nM (±)-1 (rat α4β2 nAChR [5]; 2 min pre-application of 10 nM DHβE, n=4, α3β2 and α4β2 currents): completely blocked

Compound: CN1[C@@H]2CC[C@H]1C[C@@H](OC(=O)c1c[nH]c3ccccc13)C2 [tropisetron, reference compound]
- block of currents induced by 100 μM (±)-1 (5-HT3A receptor): completely blocks
